Results on 23 compounds are retold here after patent publication US9315491B2 (DEVELOPMENT CENTER FOR BIOTECHNOLOGY, priority 2009, dated 2016).

One assay concerns p-Akt S473 (mTORC2). Briefly: Immunoblotting, PI3K/Akt/mTOR signal transduction, p-Akt S473. The format is cell-based. Conditions: Homo sapiens; PC-3 cell. An excerpt:
(§1) For immunoblotting experiments, A549 cells were inoculated to the wells of a 6-well culture plate and cultured overnight. […] Proteins were separated by SDS-PAGE electrophoresis and transferred to PVDF membrane. Protein expression was immunobloted by various primary antibodies and detected by Immobilon Western Chemiluminescent HRP Substrate (Millipore). Antibody against Akt, phosphor-Akt (Ser473), phosphor-Akt (Thr308), p70 S6 Kinase, phosphor-p70 S6 Kinase (Thr389), 4E-BP1, and phosphor-4E-BP1 (Thr37/46) were purchased form Cell Signaling Technology.
(Immunoblotting shows a protein as a band on a membrane.)

Another assay has as its system p-S6K (mTORC1). The experiment in a line: Immunoblotting, PI3K/Akt/mTOR signal transduction, p-S6K. The format is cell-based. Conditions: Homo sapiens; PC-3 cell.
Description: as §1

Another assay addresses PI3K (p110α/p85α) (Homo sapiens (Human), UniProt P42336). The experiment in a line: PI3K HTRF enzyme assay, p110α/p85α. The format is biochemical. Conditions: read-out: % inhibition @ 500 nM p110α; compound at 500 nM, 10 μM ATP. In short, it runs like this:
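Recombinant PI3K heterodimers with PIP2 substrate; reactions ran 30 min at room temperature with 10 μM ATP for p110α/p85α and 100 μM ATP for p110β/p85α. After stop, HTRF detection followed 17 h incubation in the dark at room temperature; HTRF ratio used as read-out.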
For orientation: In TR-FRET formats the signal depends on donor and acceptor labels being close together.

Another assay deals with recombinant mTOR (Homo sapiens (Human), UniProt P42345). The experiment in a line: mTOR kinase assay (33P incorporation into 4EBP1). The format is biochemical. To be noted: compound at 10 μM, 10 μM ATP. In short, it runs like this: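 Recombinant human mTOR (50 ng) phosphorylated His-tagged 4EBP1 (300 ng) with 10 μM ATP plus [γ-33P]-ATP in HEPES pH 7.5, MnCl2, EGTA and DTT for 30 min at 30° C. Labelled 4EBP1 was filter-captured and counted. IC50 was derived from eight-point duplicate dilution series.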
Sequence of recombinant mTOR (P42345 1360-2549): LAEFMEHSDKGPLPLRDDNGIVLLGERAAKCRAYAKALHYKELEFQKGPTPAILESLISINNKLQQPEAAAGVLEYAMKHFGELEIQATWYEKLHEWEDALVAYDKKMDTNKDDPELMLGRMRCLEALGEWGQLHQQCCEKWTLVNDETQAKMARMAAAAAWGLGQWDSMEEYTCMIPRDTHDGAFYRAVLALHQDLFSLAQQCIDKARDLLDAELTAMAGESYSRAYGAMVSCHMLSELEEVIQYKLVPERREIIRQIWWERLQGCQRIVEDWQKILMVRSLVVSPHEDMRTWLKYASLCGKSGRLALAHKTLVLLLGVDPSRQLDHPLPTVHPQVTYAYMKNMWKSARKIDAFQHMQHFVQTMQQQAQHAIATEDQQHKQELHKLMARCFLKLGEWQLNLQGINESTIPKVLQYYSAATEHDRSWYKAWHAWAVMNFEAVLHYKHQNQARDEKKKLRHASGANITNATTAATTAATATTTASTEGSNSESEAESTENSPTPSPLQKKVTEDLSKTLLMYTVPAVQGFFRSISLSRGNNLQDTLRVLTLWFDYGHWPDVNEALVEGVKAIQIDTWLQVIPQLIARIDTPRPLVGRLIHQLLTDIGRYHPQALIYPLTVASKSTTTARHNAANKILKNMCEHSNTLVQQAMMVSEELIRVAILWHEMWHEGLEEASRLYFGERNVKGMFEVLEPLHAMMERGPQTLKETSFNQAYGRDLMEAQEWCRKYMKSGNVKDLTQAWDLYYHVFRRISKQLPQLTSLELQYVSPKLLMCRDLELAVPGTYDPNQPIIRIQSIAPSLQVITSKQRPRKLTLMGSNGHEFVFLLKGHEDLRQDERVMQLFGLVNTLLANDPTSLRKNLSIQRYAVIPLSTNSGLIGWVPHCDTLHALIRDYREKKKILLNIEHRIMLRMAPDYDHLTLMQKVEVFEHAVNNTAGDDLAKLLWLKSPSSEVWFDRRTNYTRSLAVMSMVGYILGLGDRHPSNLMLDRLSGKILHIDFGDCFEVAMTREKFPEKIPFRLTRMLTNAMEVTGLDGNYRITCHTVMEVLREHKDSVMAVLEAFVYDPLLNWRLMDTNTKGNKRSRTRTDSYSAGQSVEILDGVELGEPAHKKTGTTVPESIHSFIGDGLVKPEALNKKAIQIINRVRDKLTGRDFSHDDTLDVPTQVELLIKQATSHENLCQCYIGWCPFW

Another assay relates to A549 cells. The experiment in a line: Antiproliferation assay (MTS), A549. It counts as cell-based. To be noted: Homo sapiens; A549, 72 hours of drug treatment.
For a further assay, the system named is PC-3 cells. Briefly: Antiproliferation assay (MTS), PC-3. To be noted: Homo sapiens, PC3, 72 hours of drug treatment. The format is cell-based. How it is done:
(1) Antiproliferation Assay
PC-3, U-87 MG, HCC1954 and BT474 cell lines were purchased from the American Type Culture Collection (ATCC, USA). PC-3 was grown in F12K medium (GIBCO) containing 10% FBS. U-87 MG was grown in Eagle's minimum essential medium (MEM, Sigma) supplemented with nonessential amino acids, L-glutamine, sodium pyruvate, and 10% FBS. HCC1954 was grown in RPMI medium (GIBCO) containing 10% FBS. […] All cells were incubated in a humidified atmosphere containing 5% CO2 at 37° C.
Cell lines were inoculated to the wells of a 96-well culture plate with 1000-5000 cells per well. The compounds were prepared and used to treat cells with less than 1% DMSO. After 72 hours of drug treatment, the viability of each cell line was examined by CellTiter 96 Aqueous Non-Radioactive Cell Proliferation Assay (Promega). The living cells were detectable by conversion of MTS into aqueous, soluble formazan. MTS/PMS solution was freshly prepared and 20 μl of MTS/PMS solution was added to each well of the 96-well cultured plate. The assay plate was incubated for 3 hours and the absorbance at 490 nm was measured by EMax ELISA Reader (Molecular Devices). The IC50 values of compounds were determined after carrying out assays at eight serially diluted concentrations of each compound in triplicate, and are the mean of three separate determinations. The results were analyzed using linear regression software (GraphPad Prism 5; GraphPad Software Inc.).

Sequence of PI3K (p110α/p85α) (P42336 whole entry, species assumed): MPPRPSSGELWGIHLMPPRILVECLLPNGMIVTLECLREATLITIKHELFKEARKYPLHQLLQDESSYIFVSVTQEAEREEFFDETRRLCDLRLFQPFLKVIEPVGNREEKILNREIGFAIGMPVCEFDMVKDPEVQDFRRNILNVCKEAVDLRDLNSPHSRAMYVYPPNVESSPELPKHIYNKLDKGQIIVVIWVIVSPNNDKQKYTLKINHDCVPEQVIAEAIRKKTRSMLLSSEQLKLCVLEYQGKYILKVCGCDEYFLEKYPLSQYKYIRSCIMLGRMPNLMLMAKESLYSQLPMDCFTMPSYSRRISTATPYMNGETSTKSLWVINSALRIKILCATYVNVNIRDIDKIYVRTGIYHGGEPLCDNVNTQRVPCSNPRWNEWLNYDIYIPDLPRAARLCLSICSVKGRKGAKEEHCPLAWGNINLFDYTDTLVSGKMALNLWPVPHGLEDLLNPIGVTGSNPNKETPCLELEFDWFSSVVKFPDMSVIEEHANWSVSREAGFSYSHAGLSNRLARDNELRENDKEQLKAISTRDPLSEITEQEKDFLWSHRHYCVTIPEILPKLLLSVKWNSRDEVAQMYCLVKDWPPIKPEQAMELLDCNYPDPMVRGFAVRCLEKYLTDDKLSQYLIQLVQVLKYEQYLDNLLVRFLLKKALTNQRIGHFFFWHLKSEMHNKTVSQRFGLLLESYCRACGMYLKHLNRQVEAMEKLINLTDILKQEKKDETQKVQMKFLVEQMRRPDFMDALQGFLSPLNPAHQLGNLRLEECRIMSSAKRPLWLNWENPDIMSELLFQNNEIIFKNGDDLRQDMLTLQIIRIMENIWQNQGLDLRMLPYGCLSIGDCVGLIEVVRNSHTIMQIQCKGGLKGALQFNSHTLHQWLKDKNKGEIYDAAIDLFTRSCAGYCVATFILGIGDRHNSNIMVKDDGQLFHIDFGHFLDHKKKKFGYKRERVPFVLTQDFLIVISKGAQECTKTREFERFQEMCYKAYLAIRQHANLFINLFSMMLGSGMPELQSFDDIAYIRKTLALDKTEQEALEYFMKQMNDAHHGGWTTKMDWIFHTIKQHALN
Sequence of PI3K (p110α/p85α) (P27986 whole entry partner, species assumed): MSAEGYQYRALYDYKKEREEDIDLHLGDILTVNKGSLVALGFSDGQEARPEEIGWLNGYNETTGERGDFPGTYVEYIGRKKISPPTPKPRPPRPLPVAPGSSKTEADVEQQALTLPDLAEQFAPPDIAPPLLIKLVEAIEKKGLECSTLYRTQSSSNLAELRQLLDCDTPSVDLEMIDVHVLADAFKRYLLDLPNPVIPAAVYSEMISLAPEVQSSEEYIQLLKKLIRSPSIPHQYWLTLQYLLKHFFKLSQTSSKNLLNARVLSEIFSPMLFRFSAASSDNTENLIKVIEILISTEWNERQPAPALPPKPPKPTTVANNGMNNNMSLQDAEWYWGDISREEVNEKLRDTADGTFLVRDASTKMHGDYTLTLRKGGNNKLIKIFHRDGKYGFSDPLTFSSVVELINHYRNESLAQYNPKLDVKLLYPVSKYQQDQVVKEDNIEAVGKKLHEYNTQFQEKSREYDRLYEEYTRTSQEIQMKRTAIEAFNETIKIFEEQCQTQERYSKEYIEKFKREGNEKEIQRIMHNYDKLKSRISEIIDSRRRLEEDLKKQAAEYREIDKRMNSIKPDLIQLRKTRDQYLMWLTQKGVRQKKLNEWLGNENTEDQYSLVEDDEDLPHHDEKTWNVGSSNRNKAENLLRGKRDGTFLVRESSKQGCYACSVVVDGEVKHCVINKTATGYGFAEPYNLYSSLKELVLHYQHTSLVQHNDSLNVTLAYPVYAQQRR

Regarding `Cn1c(=O)n(-c2ccc(C(C)(C)C#N)cc2)c2c3cc(-c4cnc5ccccc5c4)ccc3ncc21` [BEZ-235], the IC50 in the assay on p-Akt S473 (mTORC2) is 28.9 nM; in the assay on p-S6K (mTORC1) it was < 10 nM.

On to `CS(=O)(=O)N1CCN(Cc2cc3nc(-c4cccc5[nH]ncc45)nc(N4CCOCC4)c3s2)CC1` [GDC-0941], for which the IC50 in the assay with p-Akt S473 (mTORC2) amounted to 11.5 nM; in the assay on p-S6K (mTORC1), 451 nM.

In the case of `CSc1c(OCCN(C)C)nc(-c2cccc(O)c2)nc1N1CCOCC1` [MTR-0043, 3-[4-(2-Dimethylamino-ethoxy)-5-methylsulfanyl-6-morpholin-4-yl-pyrimidin-2-yl]-phenol], the inhibition at 0.5 µM at PI3K (p110α/p85α) turned out to be 85.4%. Moreover, the inhibition at 10 µM at recombinant mTOR worked out at 96%.

With `CSc1c(Cl)nc(-c2ccc(NC(=O)Nc3ccccc3)cc2)nc1N1CCOCC1` [MTR-0091, 1-[4-(4-Chloro-5-methylsulfanyl-6-morpholin-4-yl-pyrimidin-2-yl)-phenyl]-3-phenyl-urea], the inhibition at 0.5 µM on PI3K (p110α/p85α) turned out to be 60.9%. Besides, the inhibition at 10 µM on recombinant mTOR was found to be 92%.

In the case of `CCOc1c(C(=O)N2CCN(S(C)(=O)=O)CC2)nc(-c2ccc(NC(=O)Nc3ccccc3)cc2)nc1N1CCOCC1` [MTR-0145, 1-{4-[5-Ethoxy-4-(4-methanesulfonyl-piperazine-1-carbonyl)-6-morpholin-4-yl-pyrimidin-2-yl]-phenyl}-3-phenyl-urea], the values for the IC50 in the assay with A549 cells and with PC-3 cells were 1360 ± 340 nM and 432 ± 20 nM, respectively. Moreover, the inhibition at 10 µM on recombinant mTOR came out at 100%.

Regarding `CCOC(=O)c1nc(-c2ccc(NC(=O)Nc3cccc(F)c3)cc2)nc(N2CCOCC2)c1OCC` [MTR-0147, 5-Ethoxy-2-{4-[3-(3-fluoro-phenyl)-ureido]-phenyl}-6-morpholin-4-yl-pyrimidine-4-carboxylic acid ethyl ester], the inhibition at 0.5 µM on PI3K (p110α/p85α) came to 52.4%. Besides, on recombinant mTOR, the inhibition at 10 µM was 95%.

Take `CSc1cnc(-c2ccc(NC(=O)Nc3ccccc3)cc2)nc1N1CCOCC1` [MTR-0162, 1-[4-(5-Methylsulfanyl-4-morpholin-4-yl-pyrimidin-2-yl)-phenyl]-3-phenyl-urea]: the inhibition at 0.5 µM on PI3K (p110α/p85α) was 102%. In addition, the inhibition at 10 µM on recombinant mTOR came out at 95%.

As for `COc1cnc(-c2ccc(NC(=O)Nc3cccc(F)c3)cc2)nc1N1CCOCC1` [MTR-0164, 1-(3-Fluoro-phenyl)-3-[4-(5-methoxy-4-morpholin-4-yl-pyrimidin-2-yl)-phenyl]-urea], the inhibition at 0.5 µM on PI3K (p110α/p85α) stood at 84.7%. Moreover, the inhibition at 10 µM on recombinant mTOR was 91%.

Take `CCOc1c(CN2CCN(S(C)(=O)=O)CC2)nc(-c2ccc(NC(=O)Nc3ccccc3)cc2)nc1N1CCOCC1` [MTR-0169, 1-{4-[5-Ethoxy-4-(4-methanesulfonyl-piperazin-1-ylmethyl)-6-morpholin-4-yl-pyrimidin-2-yl]-phenyl}-3-phenyl-urea]: the inhibition at 0.5 µM at PI3K (p110α/p85α) stood at 52.7%. Also, on recombinant mTOR, the inhibition at 10 µM was found to be 96%.

`CSc1cnc(-c2ccc(NC(=O)Nc3ccc(F)cc3)cc2)nc1N1CCOCC1` [MTR-0178, 1-(4-Fluoro-phenyl)-3-[4-(5-methylsulfanyl-4-morpholin-4-yl-pyrimidin-2-yl)-phenyl]-urea]: the inhibition at 0.5 µM at PI3K (p110α/p85α) came out at 48.8%. In addition, the inhibition at 10 µM at recombinant mTOR amounted to 90%.

`CSc1c(Cl)nc(-c2ccc(NC(=O)Nc3cccc(NC(C)=O)c3)cc2)nc1N1CCOCC1` [MTR-0270, N-(3-{3-[4-(4-Chloro-5-methylsulfanyl-6-morpholin-4-yl-pyrimidin-2-yl)-phenyl]-ureido}-phenyl)-acetamide]: the inhibition at 0.5 µM at PI3K (p110α/p85α) is 41.1%. Moreover, the inhibition at 10 µM on recombinant mTOR is 96%.

Consider `CCOc1c(C(=O)N2CCOCC2)nc(-c2ccc(NC(=O)Nc3ccc(N4CCOCC4=O)cc3)cc2)nc1N1CCOCC1` [MTR-0280, 1-{4-[5-Ethoxy-4-(morpholine-4-carbonyl)-6-morpholin-4-yl-pyrimidin-2-yl]-phenyl}-3-[4-(3-oxo-morpholin-4-yl)-phenyl]-urea], for which the IC50 in the assay on A549 cells stood at 382 ± 23 nM; in the assay on PC-3 cells it was 126 ± 8 nM. Besides, the inhibition at 10 µM at recombinant mTOR was determined as 95%.

As for `COc1cnc(-c2ccc(NC(=O)Nc3ccc(N)cc3)cc2)nc1N1CCOCC1` [MTR-0350, 1-(4-Amino-phenyl)-3-[4-(5-methoxy-4-morpholin-4-yl-pyrimidin-2-yl)-phenyl]-urea], the IC50 came out at 614 ± 28 nM with A549 cells and 188 ± 6 nM in the assay with PC-3 cells. The inhibition at 10 µM at recombinant mTOR was 95%.

For `CSc1cnc(-c2ccc(NC(=O)Nc3cccc(NC(C)=O)c3)cc2)nc1N1CCOCC1` [MTR-0377, N-(3-{3-[4-(5-Methylsulfanyl-4-morpholin-4-yl-pyrimidin-2-yl)-phenyl]-ureido}-phenyl)-acetamide], the values for the IC50 in the assay on A549 cells and with PC-3 cells were 598 ± 18 nM and 205 ± 6 nM, respectively. Moreover, the inhibition at 10 µM at recombinant mTOR worked out at 97%.

Take `CCOc1cnc(-c2ccc(NC(=O)Nc3ccc(N4CCOCC4=O)cc3)cc2)nc1-c1ccncc1` [MTR-0398, 1-[4-(5-Ethoxy-4-pyridin-4-yl-pyrimidin-2-yl)-phenyl]-3-[4-(3-oxo-morpholin-4-yl)-phenyl]-urea]: the IC50 in the assay on A549 cells was 460 ± 28 nM; with PC-3 cells, 179 ± 14 nM. For the same compound, the inhibition at 0.5 µM on PI3K (p110α/p85α) came to 47%. Moreover, the inhibition at 10 µM at recombinant mTOR stood at 89%.

`O=C(Nc1ccc(C(=O)N2CCOCC2)cc1)Nc1ccc(-c2ncc(OCCN3CCOCC3)c(N3CCOCC3)n2)cc1` [MTR-0454, 1-[4-(Morpholine-4-carbonyl)-phenyl]-3-{4-[4-morpholin-4-yl-5-(2-morpholin-4-yl-ethoxy)-pyrimidin-2-yl]-phenyl}-urea]: on PI3K (p110α/p85α), the inhibition at 0.5 µM was found to be 74.4%.

For `O=C(Nc1ccc(-c2ncc(OCCN3CCOCC3)c(N3CCOCC3)n2)cc1)Nc1ccc(N2CCOCC2=O)cc1` [MTR-0455, 1-{4-[4-Morpholin-4-yl-5-(2-morpholin-4-yl-ethoxy)-pyrimidin-2-yl]-phenyl}-3-[4-(3-oxo-morpholin-4-yl)-phenyl]-urea], the inhibition at 0.5 µM at PI3K (p110α/p85α) was 48.9%.

In the case of `NC(=O)c1ccc(NC(=O)Nc2ccc(-c3ncc(OCCN4CCOCC4)c(N4CCOCC4)n3)cc2)cc1` [MTR-0456, 4-(3-{4-[4-Morpholin-4-yl-5-(2-morpholin-4-yl-ethoxy)-pyrimidin-2-yl]-phenyl}-ureido)-benzamide], at PI3K (p110α/p85α), the inhibition at 0.5 µM worked out at 52.6%.

As for `CSc1c(-c2cccnc2)nc(-c2ccc(NC(=O)Nc3ccc(N4CCOCC4=O)cc3)cc2)nc1N1CCOCC1` [MTR-0457, 1-[4-(5-Methylsulfanyl-4-morpholin-4-yl-6-pyridin-3-yl-pyrimidin-2-yl)-phenyl]-3-[4-(3-oxo-morpholin-4-yl)-phenyl]-urea], at PI3K (p110α/p85α), the inhibition at 0.5 µM is 47.4%.

For the compound `CSc1cnc(-c2ccc(NC(=O)Nc3ccc(C(=O)N4CCOCC4)cc3)cc2)nc1N1CCOCC1` [MTR-0461, 1-[4-(5-Methylsulfanyl-4-morpholin-4-yl-pyrimidin-2-yl)-phenyl]-3-[4-(morpholine-4-carbonyl)-phenyl]-urea], the inhibition at 0.5 µM on PI3K (p110α/p85α) was found to be 93.4%.

`CSc1cnc(-c2ccc(NC(=O)Nc3ccncc3)cc2)nc1N1CCOCC1` [MTR-0462, 1-[4-(5-Methylsulfanyl-4-morpholin-4-yl-pyrimidin-2-yl)-phenyl]-3-pyridin-4-yl-urea]: the inhibition at 0.5 µM at PI3K (p110α/p85α) came out at 67.9%.

On to `CSc1c(Cl)nc(-c2ccc(NC(=O)Nc3ccncc3)cc2)nc1N1CCOCC1` [MTR-0469, 1-[4-(4-Chloro-5-methylsulfanyl-6-morpholin-4-yl-pyrimidin-2-yl)-phenyl]-3-pyridin-4-yl-urea], for which the inhibition at 0.5 µM at PI3K (p110α/p85α) is 81.7%.

`Oc1cccc(-c2nc(N3CCOCC3)c3oc4ncccc4c3n2)c1` [PI-103]: the IC50 in the assay with p-Akt S473 (mTORC2) stood at 35.6 nM; with p-S6K (mTORC1) it was 64.9 nM.

By IC50 is commonly meant the point on the concentration scale where inhibition reaches its midpoint. What is called inhibition is the change of the read-out against control, counted positive when it falls.
